Measured values from patent US9023789B2, “Amylin analogs and pharmaceutical compositions thereof” (Novo Nordisk A/S, priority 2012, dated 2015).
≈ marks a conversion by molar mass, not a printed value. Like-named read-outs stand apart in the source and are kept apart here. Numbered stars: 1 amine (or outer) side, 2 acyl side, 3 side chain; on linkers, the order of the positions; unused ones are H or OH. Bridge positions count the residues as written; N and C are the ends. Side chains are listed from the residue outwards. Peptide text beside a SMILES is read from it. * marks the point of attachment. C20 diacid = O=C(O)CCCCCCCCCCCCCCCCCCC(=O)*; γGlu = O=C(O)[C@H](CCC(=O)[*:2])N[*:1]; AEEA = NCCOCCOCC(=O)O

Legend:
rat calcitonin receptor = target: T1, rat calcitonin receptor (Rattus norvegicus, UniProt P32214); assay: ASSAY (VIII) binding to the rat calcitonin receptor; settings: Table 7, read-out: rCTR bind IC50
T1 construct: expressed in transfected cells; host or cells: BHK tk'ts 13 (transient, FuGENE 6), membranes
T1 sequence (P32214 25-479 isoform P32214-2 limits assumed): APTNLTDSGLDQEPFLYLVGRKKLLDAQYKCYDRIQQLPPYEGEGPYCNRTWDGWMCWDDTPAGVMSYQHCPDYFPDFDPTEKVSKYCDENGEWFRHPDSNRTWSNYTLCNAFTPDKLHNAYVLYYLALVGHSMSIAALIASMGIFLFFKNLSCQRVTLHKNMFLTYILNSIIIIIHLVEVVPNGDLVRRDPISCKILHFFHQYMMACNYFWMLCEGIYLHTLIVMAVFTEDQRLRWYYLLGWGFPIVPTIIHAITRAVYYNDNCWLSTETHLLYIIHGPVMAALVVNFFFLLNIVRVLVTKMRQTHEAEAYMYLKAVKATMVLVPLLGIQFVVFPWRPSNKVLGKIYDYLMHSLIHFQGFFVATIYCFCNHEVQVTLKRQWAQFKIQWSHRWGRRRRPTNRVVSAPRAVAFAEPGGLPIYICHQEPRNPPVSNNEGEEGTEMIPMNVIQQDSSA
Summary of the method: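 Rat calcitonin receptor is expressed transiently in BHK tk′ts 13 cells cultured in DMEM with 10% FBS. Roughly two days (approximately 48 hours) post-transfection, cells are harvested for membrane preparation.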

[1] = target: T2, rat amylin receptor (rat calcitonin receptor + rat RAMP 3) (Rattus norvegicus, UniProt P32214+Q9JJ73); assay: ASSAY (VI) binding to the rat amylin receptor; settings: for IC50: binding to rat amylin receptor, read-out: rAmylin-R bind IC50
T2 construct: expressed in transfected cells; host or cells: BHK tk'ts 13 (transient, FuGENE 6), membranes
T2 sequence (P32214 25-479 isoform P32214-2 limits assumed): T1 sequence (P32214 25-479 isoform P32214-2 limits assumed)
T2 sequence (Q9JJ73 23-147 partner): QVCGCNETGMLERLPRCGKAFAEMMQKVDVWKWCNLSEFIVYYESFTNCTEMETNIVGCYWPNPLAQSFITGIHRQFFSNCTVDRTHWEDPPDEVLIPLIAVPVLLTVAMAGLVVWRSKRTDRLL
Summary of the method: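 This assay measured binding to the rat amylin receptor. BHK tk′ts 13 cells were transiently transfected with the rat calcitonin receptor using FuGENE® 6 (Roche), following the manufacturer's recommendations. About 48 hours after transfection, the cells were harvested and membranes were prepared from them for the binding determination.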

[2] = target: T3, human amylin receptor (membranes from Amylin 3(a)/CRE-luc cells) (Homo sapiens, UniProt O60896+P30988); assay: ASSAY (V) binding to the human amylin receptor (SPA, 125I-rat amylin);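 note: competition binding of cell membranes (35 ng/µL) mixed with SPA beads in 384-well plates at 40 µL total volume, read by scintillation counting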
T3 construct: expressed in transfected cells
T3 sequence (P30988 25-474): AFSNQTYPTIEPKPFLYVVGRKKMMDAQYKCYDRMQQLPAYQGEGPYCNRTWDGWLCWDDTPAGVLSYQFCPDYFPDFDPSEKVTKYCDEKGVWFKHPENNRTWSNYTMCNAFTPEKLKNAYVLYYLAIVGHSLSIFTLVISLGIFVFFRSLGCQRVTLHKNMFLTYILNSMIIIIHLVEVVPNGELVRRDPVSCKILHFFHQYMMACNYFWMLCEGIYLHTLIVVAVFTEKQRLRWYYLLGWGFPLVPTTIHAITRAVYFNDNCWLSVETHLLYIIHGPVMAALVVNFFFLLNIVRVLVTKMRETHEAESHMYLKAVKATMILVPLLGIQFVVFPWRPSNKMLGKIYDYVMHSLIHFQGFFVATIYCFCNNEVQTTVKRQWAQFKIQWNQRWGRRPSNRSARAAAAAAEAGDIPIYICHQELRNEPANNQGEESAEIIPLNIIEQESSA
T3 sequence (O60896 24-148 partner): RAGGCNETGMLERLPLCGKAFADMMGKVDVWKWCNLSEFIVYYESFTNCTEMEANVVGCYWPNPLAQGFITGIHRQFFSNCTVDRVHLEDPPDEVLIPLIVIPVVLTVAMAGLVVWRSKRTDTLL

[3] = ASSAY (IV) determination of solubility; assay type: physicochemical
Summary of the method: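 Dissolve polypeptide in water ([…] stock); combine 1:1 with each 100 mM buffer (glycylglycine pH 3.0/4.0/5.0; bistrispropane pH 6.0/6.5/7.0/7.5/8.0); hold 18 hours at room temperature; centrifuge; quantify polypeptide by UPLC.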

Sprague Dawley (SD) rats = assay: ASSAY (I) efficacy testing on appetite (food intake) using an ad libitum fed rat model; assay type: in vivo; settings: rat, 30 nmol/kg
Summary of the method: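 Ad libitum fed SD rats (200–250 g) were housed singly on a reversed light/dark cycle and given one 0.01–3 mg/kg dose ip, po or sc just before lights-off, with 5–8 per dose group plus vehicle controls. Food intake was recorded hourly for 7 h, then at 24 h and sometimes 48 h; Grubbs outliers were excluded.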

[4] = Table 7, rat binding selectivity, rCTR IC50 / rAmylin-R IC50
[5] = Table 7a (preferred compounds), rat binding selectivity, rCTR IC50 / rAmylin-R IC50
[6] = ratio of rCTR bind IC50 to rAmylin-R bind IC50
[7] = Table 5, selectivity, hCTR bind IC50 / hAmylin-R bind IC50
[8] = Table 5a, selectivity, hCTR bind IC50 / hAmylin-R bind IC50
[9] = Table 5b, selectivity, hCTR bind IC50 / hAmylin-R bind IC50
[10] = Table 5c, selectivity, hCTR bind IC50 / hAmylin-R bind IC50
[11] = Table 7, human binding selectivity, included for comparison
[12] = Table 7a (preferred compounds), human binding selectivity, included for comparison
[13] = ratio of human calcitonin receptor binding IC50 to human amylin receptor binding IC50
[14] = bistrispropane buffer, pH 6.5, read-out: Solubility pH 6.5 Concentration
[15] = bistrispropane buffer, pH 7.5, read-out: Solubility pH 7.5 Concentration
[16] = bistrispropane buffer, pH 6.0, read-out: Solubility pH 6.0 Concentration
[17] = bistrispropane buffer, pH 7.0, read-out: Solubility pH 7.0 Concentration
[18] = bistrispropane buffer, pH 8.0, read-out: Solubility pH 8.0 Concentration
[19] = glycylglycine buffer, pH 3.0, read-out: Solubility pH 3.0 Concentration
[20] = glycylglycine buffer, pH 4.0, read-out: Solubility pH 4.0 Concentration
[21] = glycylglycine buffer, pH 5.0, read-out: Solubility pH 5.0 Concentration

Compound | IC50 (rat calcitonin receptor) [nM] | IC50 ([1]; Table 7) [nM] | Ratio rCT/rAmylin binding [1, 4] | Ratio rCT/rAmylin binding [1, 5] | Ratio rCT/rAmylin binding [1, 6] | Ratio hCT/hAmylin binding [2, 7] | Ratio hCT/hAmylin binding [2, 8] | Ratio hCT/hAmylin binding [2, 9] | Ratio hCT/hAmylin binding [2, 10] | Ratio hCT/hAmylin binding [2, 11] | Ratio hCT/hAmylin binding [2, 12] | Ratio hCT/hAmylin binding [2, 13] | solubility at 18 h [3, 14] [µM] | solubility at 18 h [3, 15] [µM] | solubility at 18 h [3, 16] [µM] | solubility at 18 h [3, 17] [µM] | solubility at 18 h [3, 18] [µM] | solubility at 18 h [3, 19] [µM] | solubility at 18 h [3, 20] [µM] | solubility at 18 h [3, 21] [µM] | also measured
CC[C@H](C)[C@H](NC(=O)[C@H](C)NC(=O)CNC(=O)[C@H](Cc1ccccc1)NC(=O)[C@H](CC(N)=O)NC(=O)[C@@H]1CCCN1C(=O)[C@H](CO)NC(=O)[C@H](CO)NC(=O)[C@H](Cc1c[nH]cn1)NC(=O)[C@H](CCCNC(=N)N)NC(=O)[C@H](CC(C)C)NC(=O)[C@H](Cc1ccccc1)NC(=O)[C@H](Cc1c[nH]cn1)NC(=O)[C@H](C)NC(=O)[C@H](CC(C)C)NC(=O)[C@H](CCCNC(=N)N)NC(=O)[C@H](CCC(N)=O)NC(=O)[C@@H](NC(=O)[C@H](C)NC(=O)[C@@H]1CSSC[C@H](NC(=O)[C@@H](N)CCCCNC(=O)COCCOCCNC(=O)CC[C@H](NC(=O)CCCCCCCCCCCCCCCCCCC(=O)O)C(=O)O)C(=O)N[C@@H](CC(N)=O)C(=O)N[C@@H]([C@@H](C)O)C(=O)N[C@@H](C)C(=O)N[C@@H]([C@@H](C)O)C(=O)N1)[C@@H](C)O)C(=O)N1CCC[C@H]1C(=O)N[C@@H](CO)C(=O)N[C@@H](CO)C(=O)N[C@H](C(=O)N1CCC[C@H]1C(=O)N[C@H](C(=O)NCC(=O)N[C@@H](CO)C(=O)N[C@@H](CC(N)=O)C(=O)N[C@H](C(=O)N[C@@H](Cc1ccc(O)cc1)C(N)=O)[C@@H](C)O)C(C)C)[C@@H](C)O [Example 61] (H-K([AEEA-γGlu-C20 diacid])CNTATCATQRLAHFLRHSSPNFGAIPSSTPVGSNTY-NH2; disulfide 2-7 (inferred)) | 33.4 | 0.842 | 39.7 | 39.7 | 39.7 | 66.7 | 66.7 | 66.7 | 66.7 | 66.7 | 66.7 | 66.7 | ≥ 200 | ≥ 200 | ≥ 200 | ≥ 200 | 153 (≈ 693 µg/mL) | ≥ 200 | ≥ 200 | ≥ 200 | Food intake reduction 0-24 h 30 nmol/kg (%) (Sprague Dawley (SD) rats): 53%; Food intake reduction 24-48 h 30 nmol/kg (%) (Sprague Dawley (SD) rats): 18%
CC[C@H](C)[C@H](NC(=O)[C@H](C)NC(=O)CNC(=O)[C@H](Cc1ccccc1)NC(=O)[C@H](CC(N)=O)NC(=O)[C@@H]1CCCN1C(=O)[C@H](CO)NC(=O)[C@H](CO)NC(=O)[C@H](Cc1c[nH]cn1)NC(=O)[C@H](CCCNC(=N)N)NC(=O)[C@H](CC(C)C)NC(=O)[C@H](Cc1ccccc1)NC(=O)[C@H](CC(N)=O)NC(=O)[C@H](C)NC(=O)[C@H](CC(C)C)NC(=O)[C@H](CCCNC(=N)N)NC(=O)[C@H](CCC(N)=O)NC(=O)[C@@H](NC(=O)[C@H](C)NC(=O)[C@@H]1CSSC[C@H](NC(=O)[C@H](CCCCN)NC(=O)CC[C@H](NC(=O)CCCCCCCCCCCCCCCCCCC(=O)O)C(=O)O)C(=O)N[C@@H](CC(N)=O)C(=O)N[C@@H]([C@@H](C)O)C(=O)N[C@@H](C)C(=O)N[C@@H]([C@@H](C)O)C(=O)N1)[C@@H](C)O)C(=O)N1CCC[C@H]1C(=O)N[C@@H](CO)C(=O)N[C@@H](CO)C(=O)N[C@H](C(=O)N[C@@H](CC(N)=O)C(=O)N[C@H](C(=O)NCC(=O)N[C@@H](CCCNC(=N)N)C(=O)N[C@@H](CC(N)=O)C(=O)N[C@H](C(=O)N[C@@H](Cc1ccc(O)cc1)C(N)=O)[C@@H](C)O)C(C)C)[C@@H](C)O [Example 39] ({C20 diacid-γGlu}-KCNTATCATQRLANFLRHSSPNFGAIPSSTNVGRNTY-NH2; disulfide 2-7) | 96.4 | 1.77 | 54.5 | 54.5 | 54.5 | 29.0 | 29.0 | 29.0 | 29.0 | 29.0 | 29.0 | 29.0 | ≥ 200 | ≥ 200 | ≥ 200 | ≥ 200 | ≥ 200 | ≥ 200 | ≥ 200 | ≥ 200 | IC50 ([2]; Table 4, read-out: hAmylin-R bind IC50): 0.665 nM; Food intake reduction 0-24 h 30 nmol/kg (%) (Sprague Dawley (SD) rats): 36%; Food intake reduction 24-48 h 30 nmol/kg (%) (Sprague Dawley (SD) rats): 8%
